Test results reported in patent US20100173827A1, “ROLE OF PROLINE RICH PEPTIDES IN CELLULAR COMMUNICATION MECHANISMS AND TREATMENT OF DISEASES” (priority 2008, published 2010).

Tests used:
[1] = Scavenger activity in Spin trap Electromagnetic resonance; type: biochemical; conditions: for Scavenger Activity: Spin trap Electromagnetic resonance
Description: (§1) The studies leading to discovery the mechanism protecting signals was already described earlier and is repeated here in Table 11. Amino acids QT, V, and DG may serve as an example of PRP protector present in CN V. The identified peptides were synthesized by BIO-[…] Inc. Lewisville Tex. USA. Peptides were purified in to 99% of purity their amino acid sequences were confirmed. The scavengers activity ware tested in Spin trap Electromagnetic resonance and their effect on the amyloid formation was tested on adult Lewis rats exposed to induced hypoxia. […] If small structural changes in carrier peptides lead to activation their biological activity, similar changes may suppress activity or even terminate the signal. This important property is called feed back signal. Similar type of signals ought to operate within PRPC III and PRPC IV network or are coded in CN V. In Table 12 are listed peptides that may be considered as terminating signals.

rabbits = experiment: Immunization of rabbits with peptide antigens, antibody titer in sera; type: in vivo, rabbit; conditions: for Post immunization titers: estimated titer of the antibodies in sera from the immunized rabbits; for Before immunization: titer of the antibodies in rabbit sera before immunization
Description: The basic problem in preparation antibody for triplets and PRPC peptides is the size of antigen use for immunization purposes. Triplets by definition are made from three amino acids. Under normal condition such peptides are too small to induce the antibody production. The monospecific antibodies, however, can be made by presenting the antigen in the form of a single amino acid as an annealed antigen. The annealed antigen can be made from the same amino acid. In other approach it is possible to increase the size of antigen by repeating the same motif several times. Formation of the annealing polymer will overcome the difficulties connected with the antigen (peptide) for antibody production.
In order to make annealing it is necessary sometimes, to add to peptide empty (not active immunological) amino acids. The strategy used for production antibodies included both variants and addition of the complete Freund adjuvant. The mono-specific antibodies against various ovine PRPC antigens were prepared on rabbits. The larger animals like sheep, goat, or horse may also be utilized. Two rabbits were selected for each natural antigen.

[2] = test system: immobilized gamma globulin (IgG-2); experiment: Adsorption and desorption of ovine PRPC peptides on immobilized IgG-2 column, ELISA titer; type: binding; conditions: for Titer in pool: starting material, ELISA with mono-specific anti peptide antibody; for Desorbs (pH 5.0): titer in material eluted in pH 5.0 buffer; for Not adsorbed: titer in material not adsorbed on immobilized IgG-2 column at neutral pH
Description: The ovine PRPC purified as described earlier was applied on immobilized IgG-2 column at neutral pH and eluted in pH 5.0 buffer. The starting materials not adsorbed and eluted materials were tested for the presence of selected peptides by an ELISA method, using mono-specific anti peptide antibody.
Changing the pH 7.0 of the IgG column by the elution buffer of pH 5.0 releases the peptides from the immobilized gamma globulin. Since the interaction between gamma globulin and peptide is not specific, the adsorption and desorption of the peptides from PRPC confirm theory concerning storage facility No II. Furthermore, the finding supports the hypothesis that binding the triplets to macromolecule represents the new mechanism used by host to transport triplets to new cells.

amyloid formation = experiment: Amyloid formation in adult Lewis rats exposed to induced hypoxia; type: in vivo; conditions: grades 0 to +++++, key not given
Description: as §1

Substance	Post immunization titers (rabbits)	Before immunization (rabbits)	other results
QPLLQVMMEPQ (Ovis aries) [SEQ. ID NO.: 10]	–	–	Scavenger Activity [1]: 75%
AFLLYQEPVLGPV [SEQ. ID. NO.: 40]	>25,000	0	–
HKEMPFPKYPVEPFTESQ [SEQ. ID NO.: 28]	–	–	Free radical scavenger property (in words) [1]: powerful free radicals scavengers
DQPPDVEKPDLQPFQVQS (Ovis aries) [SEQ. ID. NO.: 19]	>25,000	0	–
AFLLYQEPVLGPV [D-1, ID NO.: 40]	–	–	Titer in pool [2]: 9300; Desorbs (pH 5.0) [2]: 6400; Not adsorbed [2]: 200
LVYPFTGPIPNSLPQNILP (Ovis aries) [SEQ. ID. NO.: 20]	>25,000	0	–
RGPTPILV	–	–	Free radical scavenger property (in words) [1]: powerful scavenger property
VLEMKFPPPPQETVT (Ovis aries) [A-3, ID NO.: 3]	–	–	Titer in pool [2]: 1350; Desorbs (pH 5.0) [2]: 6400; Not adsorbed [2]: 400
MPQNFYKLPQM (Ovis aries) [SEQ. ID. NO.: 2]	>25,600	0	–
MQPPPLP (Ovis aries) [SEQ. ID. NO.: 18]	>25,000	0	–
LSQPKVLPVPQKAVPKPDMPIQ [SEQ. ID NO.: 34]	–	–	Free radical scavenger property (in words) [1]: powerful free radicals scavengers
LSQPKVLPVPQKAVPKPDMPIQ [C-11, ID NO.: 34]	–	–	Titer in pool [2]: 15400; Desorbs (pH 5.0) [2]: >25600; Not adsorbed [2]: 400
DSQPPV (Ovis aries) [SEQ. ID. NO.: 14]	>25,000	0	–
LFFFLPVVNVLP (Ovis aries) [SEQ. ID. NO.: 17]	>25,000	0	–
SPSLPQNIL [C-2, ID NO.: 25]	–	–	Titer in pool [2]: 5325; Desorbs (pH 5.0) [2]: 12800; Not adsorbed [2]: 0
SPSLPQNIL [SEQ. ID NO.: 25]	–	–	Free radical scavenger property (in words) [1]: powerful free radicals scavengers
LPPNVG (Ovis aries) [SEQ. ID. NO.: 12]	>25,000	0	–
DPPPPQS (Ovis aries) [SEQ. ID. NO.: 6]	6,400	0	–
VYPFPGPIN [SEQ. ID NO.: 24]	–	–	Free radical scavenger property (in words) [1]: powerful free radicals scavengers
SEQP (Ovis aries) [SEQ. ID. NO.: 5]	>25,600	0	–
DQPPDVEKPDLQPFQVQS (Ovis aries) [B-9, ID NO.: 19]	–	–	Titer in pool [2]: 2075; Desorbs (pH 5.0) [2]: >25600; Not adsorbed [2]: 0
FPPPK (Ovis aries) [SEQ. ID. NO.: 15]	>25,000	0	–
LKPFPKLKVEVFPFP (Ovis aries) [SEQ. ID. NO.: 4]	>25,600	0	–
VLEMKFPPPPQETVT (Ovis aries) [SEQ. ID. NO.: 3]	12,800	0	–
LQTPQPLLQVMMEPQGD (Ovis aries) [SEQ. ID. NO.: 1]	12,800	0	Titer in pool [2]: 5400; Desorbs (pH 5.0) [2]: 3200; Not adsorbed [2]: 800; Scavenger Activity [1]: 11%; Inhibit Amyloid Formation (amyloid formation): 0
SEEMP (Ovis aries) [SEQ. ID. NO.: 13]	>25,000	0	–
DLEMPVLPVEPFPFV (Ovis aries) [SEQ. ID. NO.: 16]	>25,000	0	–
MQPPPLP (Ovis aries) [B-8, ID NO.: 18]	–	–	Titer in pool [2]: 9000; Desorbs (pH 5.0) [2]: 12800; Not adsorbed [2]: 400
EMPFPKY (Ovis aries) [SEQ. ID. NO.: 21]	>25,000	0	–
